# According to US20200002327A1, “THERAPEUTIC AGENT FOR ANXIETY DISORDERS” (KYOWA HAKKO KIRIN CO., LTD., priority 2009, published 2020):
# Assays:
# rats [1] = assay: Yohimbine-induced anxiety-like behavior in rat social interaction test; format: in vivo
# Method: The male SD rats (weighing 201.8 to 285.6 g; Charles River Japan Inc.)were used in this study. On the day of behavioral evaluation, the animals were acclimatized to the test environment from 4 hours before the start of the experiment. Sixty minutes after oral administration of a vehicle (0.5 w/v % MC solution) or a test compound (prepared in suspension in 0.5 w/v % MC solution to obtain a dosing concentration of 0.5 mL per 100 g of rat body weight), two rats were allowed to meet each other in an acrylic box (50×50×50 cm). The total time of social interaction behaviors (sniffing, following, grooming and the like) during monitoring for 10 minutes immediately after meeting (between-rats interaction time) were measured with a stopwatch. Using the method of Test Example 4, the effect of a compound on the anxiety induced with administration of an anxiogenic substance was examined. Yohimbine (adrenalin α2 receptor antagonist) is known as one of the anxiogenic substance. It is thought that locus coeruleus hyperactivity that accompanies α2 receptor antagonizing action is contributory to the anxiety-inducing action of Yohimbine. Anxiety symptoms that develop with administration of Yohimbine to healthy persons were reported to be similar to panic disorders, in the pathophysiology of which abnormal locus coeruleus activity is considered to be largely involved. […]
# male ICR mice = assay: Marble burying behavior test in mice; format: in vivo; conditions: 3 mg/kg oral, 1 hour before test; marbles counted after 30 minutes; significant
# Source text: This test is known as one of the test systems for anxiolytics (Folia Pharmacologica Japonica, 126, p. 94 (2005)). Marble-burying behavior is a behavior of the mouse to bury marbles in spread planer bedding on which the marbles were placed, and is suppressed, without being accompanied by motor inhibition, by selective serotonin reuptake inhibitors (SSRIs). Since the behavior of the mouse to attempt to cover and bury harmless marbles in planer bedding is apparently similar to compulsions in patients with obsessive-compulsive disorders that are repeated while they recognize them as being unreasonable, and also since SSRIs are effective as therapeutic drugs for obsessive-compulsive disorders, and for other reasons, the marble burying behavior is getting positioned as an animal model of obsessive-compulsive disorder
# The male ICR mice (weighing 27.6 to 42.9 g; Japan SLC, Inc.) were used in this study. […] At 30 minutes later, the number of marbles more than half-buried in the planer was counted. […]
# The effects of the drug are expressed as the actually measured number of buried marbles and the inhibition rate calculated by the following equation.
# male SD rats [2] = assay: Rat social interaction test; format: in vivo; conditions: 0.3 mg/kg oral
# Source text: It is known that these social interactions increase with administration of existing anxiolytics. This test is thought as an animal model of social phobia or generalized anxiety disorders because it is consider that contradictory social environments between two rats cause stress (Eur. J. Pharmacol., 408, p. 41 (2000)).
# (§1) The male SD rats (weighing 201.8 to 285.6 g; Charles River Japan Inc.)were used in this study. On the day of behavioral evaluation, the animals were acclimatized to the test environment from 4 hours before the start of the experiment. Sixty minutes after oral administration of a vehicle (0.5 w/v % MC solution) or a test compound (prepared in suspension in 0.5 w/v % MC solution to obtain a dosing concentration of 0.5 mL per 100 g of rat body weight), two rats were allowed to meet each other in an acrylic box (50×50×50 cm). The total time of social interaction behaviors (sniffing, following, grooming and the like) during monitoring for 10 minutes immediately after meeting (between-rats interaction time) were measured with a stopwatch.
# rats [3] = assay: mCPP-induced anxiety-like behavior in rat social interaction test; format: in vivo
# Method: as §1
# Meanwhile, meta-chlorophenylpiperadine hydrochloride (mCPP) is an anxiogenic substance having a 5-HT2 receptor stimulation action. It was reported that mCPP induced anxiety symptoms in healthy subjects and aggravated the symptoms of generalized anxiety disorder in humans. The mCPP-induced anxiety response is an experimental model that well reflects anxiety (for example, generalized anxiety disorder) caused by abnormal signaling especially via 5-HT2 receptors.
# Next, the effect on mCPP-induced anxiety was examined. […]
# male Wistar rats = assay: Vogel conflict test in rats; format: in vivo, rat; conditions: 0.03 mg/kg oral, 60 minutes before; 5 min session; vehicle 6.1±0.8 times; P=0.003846, Steel-test
# Method: This test is to measure drinking counts (number of shocks during drinking) when an electric shock is applied to a water-deprived rat at each time that the rat drinks water. Under this condition, a rat is thought to be placed under a state of conflict between the motivation to drink (positive reinforcing factor) and the aversion to receiving an electric shock (negative reinforcing factor, punishment). When anxiolytics are administered to a rat, anxiety about punishing stimuli is suppressed and behavior in an attempt to take a positive reinforcer is observed. This test is thought to be an animal model of generalized anxiety disorders (Folia Pharmacologica Japonica, 115, p. 5 (2005), Japanese Journal of Clinical Psychopharmacology, 9, p. 2389 (2006)).
# The male Wistar rats (weighing 148.4 to 211.7 g; Japan SLC, Inc.) and an operant experimental apparatus were used in 20 this study. The chamber consisted of a soundproof box, and a test cage (25×30×25 cm), a shock generator, a controller, a licking sensor and PC analysis system placed in the soundproof box. […] Current conduction by licking (drinking) was detected with the licking senor and measured with the PC analysis system via the controller. […] Twenty nozzle licks were counted as one drinking response and drinking frequency (drinking count) was determined (pre-value). […]
# male SD rats [4] = assay: Elevated plus maze test in rat; format: in vivo; conditions: 0.1 mg/kg oral
# Source text: In this test, a conflict arises between rodent's exploratory drive and an innate aversion to bright open new spaces (open arms), accordingly, it has been reported that drugs having anti-anxiety activity increase the time spent in the open arms and the number of open arm entries, while anxiogenic substance decreases these parameters (Japanese Journal of Clinical Psychopharmacology, 9, p. 2389 (2006)). This test is thought to be an animal model of generalized anxiety disorders (Folia Pharmacologica Japonica, 115, p. 5 (2005), Japanese Journal of Clinical Psychopharmacology, 9, p. 2389 (2006)).
# The male SD rats (weighing 133.8 to 260.2 g; Charles River Japan Inc.) were used in this study. An apparatus was used wherein two open arms (50×10 cm) extending on the same line from a 10 cm-square central area and two enclosed arms (50×10 cm) surrounded by a wall of 40 cm height are perpendicularly crossing. Sixty minutes after oral administration of a vehicle (0.5 w/v % MC solution) or a test 20 compound (a suspension in 0.5 w/v % MC solution prepared to obtain a dosing concentration of 0.5 mL per 100 g of rat body weight), each rat was placed in the center of the elevated plus maze with its head facing toward the enclosed arm and immediately observed for its behavior for 5 minutes. The rat behavior on the maze was recorded with a digital video camera positioned on the ceiling of the laboratory. The times spent and number of entries in the open arms, enclosed arms and central platform, and distance travelled were determined using analysis software. The time spent in the open arms, percentage of open arm entries (ratio of the number of entries in the open arms to the total number of entries in the open and enclosed arms) and total distance travelled on the maze during the monitoring period were determined to evaluate the influences of the test compound.
# male SD rats [5] = assay: Conditioned fear stress (CFS) test in rats; format: in vivo, rat; conditions: 0.3 mg/kg, 60 min before retention trial
# Source text: In this test (Folia Pharmacologica Japonica, 113, p. 113 (1999)), the influences of psychological stress resulting from past aversion experience on living organisms can be measured as behavioral suppression (freezing reaction) or autonomic nervous system hyperactivity (increases in respiratory rate and blood pressure).
# The male SD rats (weighing 140.2 to 320.0 g; Charles River Japan Inc.) and a contextual learning test system were used in this study. The experimental apparatus is consisted of a soundproof box, and a test cage (20×20×25 cm), a shock generator, a controller, an external monitor and PC analysis system, which were placed in the soundproof box. The test cage has stainless bars on the floor at 1-cm intervals. A scrambled electric current was generated from the shock generator using 35 a command of the special program . The inside of the soundproof box was equipped with a speaker. A buzzer sound of 65 dB was generated via the controller using a command of the special program. The animal behavior within the test cage was recorded with a CCD camera, which was positioned on the ceiling of the soundproof box. […] The percentage of freezing behavior was determined by (Freezing time/Test time)×100. […] According to the same schedule as that on the previous day, only a buzzer sound was generated six times and the duration of freezing behavior was measured. […]
compound,measurement,setting,value
"COC(=O)[C@@H]1[C@H]2C[C@H]3c4[nH]c5ccccc5c4CCN3C[C@@H]2CC[C@@H]1O [Yohimbine, reference compound]",between-rats interaction time (Yohimbine alone),"rats [1]; Yohimbine 5 mg/kg oral, 30 minutes before measurement, vehicle 90.6±7.1 seconds, P=0.0010, Aspin-Welch test",57.6 ± 3.4 s
Cc1ccc(C(=O)Nc2nc(-c3ccco3)c(C(=O)C3CCOCC3)s2)cn1 [compound (IC)],% inhibition of mouse marble burying behavior,male ICR mice,73.7%
same,between-rats interaction time,"male SD rats [2]; 60 min before, 10 min monitoring, vehicle 85.2 ±7.6 seconds, P=0.01545, Dunnett test",119.3 ± 9.0 s
same,spontaneous activity,"male SD rats [2]; vehicle 8635.3 ±506.4 counts, P<0.001, Dunnett test",12922.7 ±646.8 counts
same,between-rats interaction time (improvement of reduction by Yohimbine),"rats [1]; 0.03 mg/kg, 30 minutes before Yohimbine (5 mg/kg), Yohimbine alone 57.6±3.4 seconds, P=0.00019, Steel test",90.3 ± 5.0 s
same,between-rats interaction time (improvement of reduction by mCPP),"rats [3]; 0.3 mg/kg, 30 minutes before mCPP (0.5 mg/kg), mCPP alone 32.5±3.6 seconds, P<0.001, Dunnett test",62.4 ± 6.9 s
same,"number of electric shocks received (drinking count, test-punished session)",male Wistar rats,12.7±1.7 times
same,time spent in the open arms,"male SD rats [4]; 60 min before, 5 minutes, vehicle 21.6 ±7.4 seconds, P=0.01687, Steel test",61.6 ± 10.9 s
same,percentage of open arm entries,"male SD rats [4]; vehicle 15.5±3.0%, P=0.04759, Steel test",33.4±6.3%
same,total distance travelled on the maze,"male SD rats [4]; vehicle 2521.97±95.34 cm, not affected",2414.83±102.13 cm
same,percentage of freezing behavior in the post-tone period,"male SD rats [5]; vehicle 59.8±9.6, P=0.01559, Dunnett test",23.4 ± 8.1%
same,percentage of freezing behavior in the with-tone period,"male SD rats [5]; vehicle 90.2±2.6, P=0.02867, Steel test",57.1 ± 9.9%
"Cl.Clc1cccc(N2CCNCC2)c1 [mCPP, meta-chlorophenylpiperadine hydrochloride, reference compound]",between-rats interaction time (mCPP alone),"rats [3]; mCPP 0.5 mg/kg oral, 30 minutes before measurement, vehicle 83.4±5.1 seconds, P<0.001, Student's t-test",32.5 ± 3.6 s
